In patent US11584749B2, “Phosphor-tetrazine compound and use thereof” (Spark Biopharma, Inc., priority 2018, dated 2023):

What was measured:
[1] = system: microtubule (HeLa human cervical cancer cells); experiment: Fluorescence bio-imaging of microtubule in fixed HeLa cells pre-treated with Docetaxel-TCO conjugate; type: cell-based
Protocol: (§1) The fluorescence imaging test was performed using a DeltaVision Elite imaging system of GE Healthcare, and an Olympus IX-71 microscope was used.
Docetaxel-TCO conjugate (Dox-TCO) was used for fluorescence bio-imaging of microtubule. HeLa human cervical cancer cells were fixed, and cultured with Dox-TCO for 1 hour, and then washed with PBS.

[2] = system: mitochondria (HeLa cells); experiment: Fluorescence imaging of mitochondria in living HeLa cells pre-treated with TPP-TCO; type: cell-based, human
Protocol: as §1
In order to confirm the fluorescence imaging of mitochondria in living cells, it was tested by the following method.
HeLa cells were incubated for 1 hour in the presence or absence of triphenylphosphonium (TPP)-TCO, and then HeLa cells were washed and treated with the compound of Example 5 or Example 6.
In addition, in order to confirm the selectivity of TPP-TCO and Example 5, and TPP-TCO and Example 6 for mitochondria, HeLa cells were treated with MitoTracker Deep Red, a mitochondria coloring dye, As a result, it was observed that the position of the fluorescence signal of MitoTracker Deep Red was consistent with that of Example 5 or Example 6.

CCN(CC)c1ccc(-c2c3c(n4ccc(-c5nnc(C)nn5)cc24)C(=O)N(CCCN2CCN(C)CC2)C3)cc1 [Example 6, 9-(4-(diethylamino)phenyl)-7-(6-methyl-1,2,4,5-tetrazin-3-yl)-2-(3-(4-methylpiperazin-1-yl)propyl)-1,2-dihydro-3H-pyrrolo[3,4-b]indolizin-3-one]
fluorescence signal on addition to cells ([1]; fixed HeLa cells cultured with Dox-TCO for 1 hour, washed with PBS): a bright fluorescence signal was generated
specificity of staining, immunofluorescence with α-tubulin antibody ([1]; fixed HeLa cells, Dox-TCO): microtubule specific staining
position of fluorescence signal versus MitoTracker Deep Red ([2]; HeLa cells, TPP-TCO and compound): consistent
fluorescence mitochondria image ([2]; living HeLa cells treated with TPP-TCO for 1 hour, then compound): a clear fluorescence mitochondria image was observed
fluorescence expression intensity in the extracellular region ([2]; living HeLa cells treated with TPP-TCO, then compound): 0
